Test system: influenza A infected mice
Assay: Influenza A/PR8 infection of mice fed SSI-4 chow
Format: in vivo, mouse
Procedure: For influenza virus infection, influenza A/PR8 strain (200 pfu/mouse) were diluted in FBS-free DMEM media on ice and inoculated in anesthetized mice through intranasal route. Sera were collected before and two weeks after infection for fatty acid component measurement. The mice were fed with control chow or SSI-4 chow for 1 week following influenza infection before switching to regular diet. The mediastinal lymph nodes were analyzed for GC B cell formation and Tfh differentiation. Mice were bred and maintained under specific pathogen-free conditions in Department of Comparative Medicine of Mayo Clinic with IACUC approval.
For analysis of surface markers, cells were stained in PBS containing 1% (w/v) bovine serum albumin on ice for 30 minutes, with anti-IgG1 (RMG1-1, Biolegend), anti-CD19 (ID3, Biolegend) anti-B220 (RA3-6B2, Biolegend), anti-CD4 (GK1.5, Biolegend), anti-CD8 (53-6.7, Biolegend), anti-CD25 (PC16, Biolegend), anti-GL7 (GL-7, Biolegend), anti-CD95 (Jo2, BD Biosciences), anti-CD138 (281-2, Biolegend), anti-IgD (11-26c.2a, Biolegend), anti-PD-1 (J43, ThermoFisher), anti-IgM (II/41, ThermoFisher). Antigen specific GC response was detected with tetramer NP-phycoerythrin conjugated with PE (Biosearch Technologies). CXCR5 was stained with biotinylated anti-CXCR5 (2G8) followed by staining with streptavidin-conjugated PE (both from BD Biosciences). Cell viability was assessed using the Fixable Dye Ghost 510 (Tonbo Bioscience) or Annexin V cell apoptosis kit with 7-AAD (ThermoFisher) following the manufacturer's protocol. Phosflow staining for phospho-S6 (S235/236) was performed using Phosflow Fix/Perm kit (BD Biosciences). Mitochondrial potential was measured by staining with 20 nM TMRM (ThermoFisher) following manufacturer's instructions. Flow cytometry was performed on the LSR II, LSR Fortessa (BD Biosciences) or Attune NxT (ThermoFisher) cytometers, and analysis was performed using FlowJo software (Tree Star).
For NP specific antibodies detection in sera, 96-well plates (2596; Costar) were coated with 2 μg/mL NP23-BSA in PBS overnight. Plates were washed twice (0.05% Tween 20 in PBS), blocked with 5% blocking protein (Bio-Rad) for 1 hour, and washed twice, and serially diluted serum samples were added for 1.5 hours at 37° C. Plates were washed four times and horseradish peroxidase (HRP)-conjugated detection Abs for IgG (Bethyl Laboratories) and IgG1 (Bethyl Laboratories) were added for 1 hour at RT, washed four times, and tetramethylbenzidine (TMB) substrate was added. Reaction was stopped using 2N H2SO4 and read at 450 nm. Similarly, antibodies IgG, IgG1 and IgG2c specific to influenza A/PR8 strain in sera were measured with influenza virus coated plate.

Question: `CNC(=O)c1ccnc(NC(=O)N2CCC(Oc3ccccc3Cl)CC2)c1` [SSI-4, 2-{[4-(2-Chlorophenoxy)piperidine-1-carbonyl]amino}-N-methylpyridine-4-carboxamide] was tested. Which “production of anti-influenza total IgG, IgG1 and IgG2c in sera” value (ELISA) did it give?
Answer: significantly dampened

Question: And the “body weight loss in influenza A infected mice” value (SSI-4 chow for 1 week following infection vs control chow)?
Answer: substantially more severe weight loss

Question: What about the “frequency of GC B cells in mediastinal lymph nodes” value (day 11 following infection) of the same molecule?
Answer: significantly reduced

Question: And the “CD138+ plasmablast formation” value (influenza infection)?
Answer: did not affect

Question: What about the “expression of Bcl6 in B cells” value (mediastinal lymph nodes) of the same molecule?
Answer: significantly reduced
